Laboratory results published in the NIST ThermoML archive (doi:10.1021/je060291c).
Several values for one entry are separate records, joined by “and”; a condition that tells them apart may be missing. Equal entries are not always repeated.

Experiment: wn = mass fraction of the nth substance listed
Conditions: Liquid, Pulse-echo method, w2 = 0.49

CC(F)(F)F [1,1,1-trifluoroethane] + FC(F)C(F)(F)F
speed of sound
Conditions	265.62 K	273.14 K	280.7 K	288.18 K
940 kPa	–	500.1 m/s	–	–
1010 kPa	–	500.9 m/s	–	–
1130 kPa	–	502.3 m/s	–	427.1 m/s
1140 kPa	–	–	465.9 m/s	–
1160 kPa	–	–	466.2 m/s	–
1190 kPa	–	–	–	428.3 m/s
1210 kPa	–	–	466.5 m/s	–
1260 kPa	–	503.8 m/s	467.5 m/s	429.1 m/s
1380 kPa	–	505.3 m/s	469.1 m/s	–
1500 kPa	–	506.6 m/s	471 m/s	432.9 m/s
1630 kPa	–	508.1 m/s	472.4 m/s	434.9 m/s
1750 kPa	–	509.5 m/s	473.9 m/s	436.7 m/s and 436.6 m/s
2010 kPa	–	512.5 m/s	477.2 m/s	–
2250 kPa	–	515.3 m/s	480.2 m/s	–
2510 kPa	–	518.1 m/s	483.5 m/s	–
2750 kPa	–	520.9 m/s	486.6 m/s	–
3010 kPa	–	523.7 m/s	489.8 m/s	–
3500 kPa	–	529.2 m/s	495.6 m/s	–
4000 kPa	–	534.4 m/s	501.4 m/s	–
4500 kPa	–	539.5 m/s	507.2 m/s	–
5000 kPa	–	544.6 m/s	512.8 m/s	–
6010 kPa	–	554.2 m/s	523.3 m/s	–
7010 kPa	–	563.6 m/s	533.5 m/s	–
8000 kPa	–	572.9 m/s	543.1 m/s	–
9000 kPa	–	581.6 m/s	552.7 m/s	–
10000 kPa	–	590.2 m/s	561.9 m/s	–
12000 kPa	–	606.5 m/s	579.4 m/s	–
14000 kPa	649.8 m/s	622 m/s	595.5 m/s	–
16010 kPa	663.9 m/s	636.6 m/s	611 m/s	–
18000 kPa	677.1 m/s	650.5 m/s	625.4 m/s	–
20000 kPa	690.1 m/s	663.8 m/s	639.5 m/s	–
23000 kPa	708.2 m/s	683.2 m/s	659.6 m/s	–
26000 kPa	725.7 m/s	701.6 m/s	678.2 m/s	–
29010 kPa	742.6 m/s	718.9 m/s	696.3 m/s	–
32000 kPa	758.5 m/s	735.3 m/s	713.7 m/s	–
35000 kPa	773.9 m/s	751.1 m/s	729.9 m/s	–
40000 kPa	798.3 m/s	775.8 m/s	755.3 m/s	–
45000 kPa	821.3 m/s	799.7 m/s	779.7 m/s	–
50000 kPa	843.1 m/s	822 m/s	802.7 m/s	–
55000 kPa	863.8 m/s	843.4 m/s	824.2 m/s	–
60000 kPa	883.7 m/s	863.4 m/s	845.1 m/s	–
65000 kPa	902.8 m/s	882.8 m/s	864.9 m/s	–
